Measurements from ChEMBL document CHEMBL5649169 (ChemMedChem, 2018).
pIC50: −log10 of the molar value.

What was measured:
[1] = target: Ephrin type-A receptor 5 (Homo sapiens, UniProt P54756); assay: Inhibition of Nano Luc-fused full length C-terminal EPHA5 (unknown origin) expressed in HEK293T cells using NanoGlo as substrate incubated for 2 hrs in presence of tracer by NanoBRET assay; assay type: cell-based
[2] = target: Actin-related protein 2 (Homo sapiens) (UniProt P61160); note: assay method not described here
[3] = target: Sodium/potassium-transporting ATPase subunit alpha-1 (Homo sapiens) (UniProt P05023); note: assay method not described here
[4] = target: Protein cholesin (Homo sapiens) (UniProt Q9BRJ6); note: assay method not described here
[5] = target: Calcium-binding protein 39 (Homo sapiens) (UniProt Q9Y376); note: assay method not described here
[6] = target: Hsp90 co-chaperone Cdc37 (Homo sapiens) (UniProt Q16543); note: assay method not described here
Chain of Hsp90 co-chaperone Cdc37 (Homo sapiens) (Q16543 whole entry): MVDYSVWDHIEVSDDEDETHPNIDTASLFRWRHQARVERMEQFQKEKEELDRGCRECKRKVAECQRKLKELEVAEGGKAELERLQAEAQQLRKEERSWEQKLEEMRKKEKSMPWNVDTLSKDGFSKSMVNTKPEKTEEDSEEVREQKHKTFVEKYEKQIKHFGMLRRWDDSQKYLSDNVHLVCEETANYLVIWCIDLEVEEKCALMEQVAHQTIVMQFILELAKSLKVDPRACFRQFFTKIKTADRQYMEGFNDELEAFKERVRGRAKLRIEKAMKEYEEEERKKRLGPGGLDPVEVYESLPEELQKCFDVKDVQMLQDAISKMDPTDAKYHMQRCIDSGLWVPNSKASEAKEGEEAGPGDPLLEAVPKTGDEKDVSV

[7] = target: Calponin-2 (Homo sapiens) (UniProt Q99439); note: assay method not described here
[8] = target: Cytochrome c oxidase subunit 5B, mitochondrial (Homo sapiens) (UniProt P10606); note: assay method not described here
Chain of Cytochrome c oxidase subunit 5B, mitochondrial (Homo sapiens) (P10606 whole entry): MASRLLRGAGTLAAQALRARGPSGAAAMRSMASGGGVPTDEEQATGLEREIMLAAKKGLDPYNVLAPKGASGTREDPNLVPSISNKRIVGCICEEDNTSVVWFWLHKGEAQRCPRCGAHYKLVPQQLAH

[9] = target: Casein kinase II subunit beta (Homo sapiens) (UniProt P67870); note: assay method not described here
[10] = target: Epithelial discoidin domain-containing receptor 1 (Homo sapiens) (UniProt Q08345); note: assay method not described here
[11] = target: 7-dehydrocholesterol reductase (Homo sapiens) (UniProt Q9UBM7); note: assay method not described here
[12] = target: Protein diaphanous homolog 1 (Homo sapiens) (UniProt O60610); note: assay method not described here
[13] = target: Epidermal growth factor receptor (Homo sapiens) (UniProt P00533); note: assay method not described here
[14] = target: Extended synaptotagmin-2 (Homo sapiens) (UniProt A0FGR8); note: assay method not described here
[15] = target: Protein FAM136A (Homo sapiens) (UniProt Q96C01); note: assay method not described here
[16] = target: Ubiquitin-like FUBI-ribosomal protein eS30 fusion protein (Homo sapiens) (UniProt P62861); note: assay method not described here
[17] = target: Squalene synthase (Homo sapiens) (UniProt P37268); note: assay method not described here
Chain of Squalene synthase (Homo sapiens) (P37268 whole entry): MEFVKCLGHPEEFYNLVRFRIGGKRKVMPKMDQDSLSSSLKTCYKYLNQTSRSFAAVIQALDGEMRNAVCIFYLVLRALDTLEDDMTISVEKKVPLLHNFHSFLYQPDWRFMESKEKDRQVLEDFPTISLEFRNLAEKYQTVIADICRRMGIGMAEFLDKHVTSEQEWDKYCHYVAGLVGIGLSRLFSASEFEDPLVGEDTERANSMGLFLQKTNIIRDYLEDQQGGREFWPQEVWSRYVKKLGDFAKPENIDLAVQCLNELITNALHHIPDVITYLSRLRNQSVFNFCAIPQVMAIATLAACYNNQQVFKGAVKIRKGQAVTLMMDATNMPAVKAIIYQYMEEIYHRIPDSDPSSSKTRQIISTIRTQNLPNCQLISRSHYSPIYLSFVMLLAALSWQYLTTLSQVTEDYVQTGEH

[18] = target: Stalled ribosome sensor GCN1 (Homo sapiens) (UniProt Q92616); note: assay method not described here
[19] = target: High mobility group protein B2 (Homo sapiens) (UniProt P26583); note: assay method not described here
[20] = target: Insulin-like growth factor 1 receptor (Homo sapiens) (UniProt P08069); note: assay method not described here
[21] = target: Interleukin enhancer-binding factor 2 (Homo sapiens) (UniProt Q12905); note: assay method not described here
Chain of Interleukin enhancer-binding factor 2 (Homo sapiens) (Q12905 whole entry): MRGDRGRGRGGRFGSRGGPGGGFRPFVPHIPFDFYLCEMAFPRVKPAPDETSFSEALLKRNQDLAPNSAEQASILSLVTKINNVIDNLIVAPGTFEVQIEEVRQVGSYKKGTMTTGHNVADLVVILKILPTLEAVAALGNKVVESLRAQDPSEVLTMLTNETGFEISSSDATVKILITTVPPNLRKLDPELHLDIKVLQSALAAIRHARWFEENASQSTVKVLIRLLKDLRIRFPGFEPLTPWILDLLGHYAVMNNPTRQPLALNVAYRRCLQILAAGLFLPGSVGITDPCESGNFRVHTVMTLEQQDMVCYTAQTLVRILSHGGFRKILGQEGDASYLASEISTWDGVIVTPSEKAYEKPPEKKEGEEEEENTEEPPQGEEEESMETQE

[22] = target: Importin-9 (Homo sapiens) (UniProt Q96P70); note: assay method not described here
[23] = target: LIM domain kinase 1 (Homo sapiens) (UniProt P53667); note: assay method not described here
Chain of LIM domain kinase 1 (Homo sapiens) (P53667 whole entry, looked up, the tested form may be a part): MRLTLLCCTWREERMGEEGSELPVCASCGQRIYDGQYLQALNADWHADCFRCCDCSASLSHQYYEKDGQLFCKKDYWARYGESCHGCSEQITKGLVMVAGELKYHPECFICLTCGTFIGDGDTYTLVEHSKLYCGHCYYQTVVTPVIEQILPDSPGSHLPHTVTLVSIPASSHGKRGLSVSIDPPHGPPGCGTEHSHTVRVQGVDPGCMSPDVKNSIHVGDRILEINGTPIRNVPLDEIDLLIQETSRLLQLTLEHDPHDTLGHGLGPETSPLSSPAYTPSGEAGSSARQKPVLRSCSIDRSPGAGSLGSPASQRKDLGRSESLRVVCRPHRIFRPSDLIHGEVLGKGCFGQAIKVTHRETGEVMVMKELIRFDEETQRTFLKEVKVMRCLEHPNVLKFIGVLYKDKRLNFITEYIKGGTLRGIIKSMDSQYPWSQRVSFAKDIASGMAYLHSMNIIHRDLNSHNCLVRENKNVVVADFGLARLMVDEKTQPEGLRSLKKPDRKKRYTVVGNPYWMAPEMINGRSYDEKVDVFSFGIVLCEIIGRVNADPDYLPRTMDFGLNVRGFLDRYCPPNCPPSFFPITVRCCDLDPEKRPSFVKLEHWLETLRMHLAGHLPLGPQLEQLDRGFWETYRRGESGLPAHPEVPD

[24] = target: Protein MAL2 (Homo sapiens) (UniProt Q969L2); note: assay method not described here
[25] = target: Dual specificity mitogen-activated protein kinase kinase 2 (Homo sapiens) (UniProt P36507); note: assay method not described here
[26] = target: Mitogen-activated protein kinase kinase kinase kinase 3 (Homo sapiens) (UniProt Q8IVH8); note: assay method not described here
[27] = target: Mitogen-activated protein kinase 7 (Homo sapiens) (UniProt Q13164); note: assay method not described here
[28] = target: Mediator of RNA polymerase II transcription subunit 23 (Homo sapiens) (UniProt Q9ULK4); note: assay method not described here
[29] = target: Myosin light chain kinase, smooth muscle (Homo sapiens) (UniProt Q15746); note: assay method not described here
[30] = target: Serine/threonine-protein kinase PAK 6 (Homo sapiens) (UniProt Q9NQU5); note: assay method not described here
Chain of Serine/threonine-protein kinase PAK 6 (Homo sapiens) (Q9NQU5 whole entry, looked up): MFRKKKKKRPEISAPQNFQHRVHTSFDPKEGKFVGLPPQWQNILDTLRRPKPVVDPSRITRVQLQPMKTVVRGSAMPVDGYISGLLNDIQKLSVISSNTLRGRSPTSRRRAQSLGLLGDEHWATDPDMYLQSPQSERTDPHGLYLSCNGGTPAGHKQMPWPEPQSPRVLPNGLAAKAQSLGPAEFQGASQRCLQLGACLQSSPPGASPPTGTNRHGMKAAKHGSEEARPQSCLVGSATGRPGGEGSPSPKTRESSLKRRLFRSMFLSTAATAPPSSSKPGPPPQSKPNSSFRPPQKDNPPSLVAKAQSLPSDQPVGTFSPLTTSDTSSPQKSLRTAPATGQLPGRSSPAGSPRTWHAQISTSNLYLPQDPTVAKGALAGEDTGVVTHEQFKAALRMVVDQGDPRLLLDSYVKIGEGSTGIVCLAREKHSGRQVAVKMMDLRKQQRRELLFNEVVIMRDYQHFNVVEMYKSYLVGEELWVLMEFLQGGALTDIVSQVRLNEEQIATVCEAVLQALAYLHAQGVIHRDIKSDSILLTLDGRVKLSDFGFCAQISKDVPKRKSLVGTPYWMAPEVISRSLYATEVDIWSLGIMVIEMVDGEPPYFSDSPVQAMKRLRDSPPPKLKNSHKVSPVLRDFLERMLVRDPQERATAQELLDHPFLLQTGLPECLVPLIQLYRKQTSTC

[31] = target: Serine/threonine-protein kinase pim-1 (Homo sapiens) (UniProt P11309); note: assay method not described here
Chain of Serine/threonine-protein kinase pim-1 (Homo sapiens) (P11309 whole entry, looked up): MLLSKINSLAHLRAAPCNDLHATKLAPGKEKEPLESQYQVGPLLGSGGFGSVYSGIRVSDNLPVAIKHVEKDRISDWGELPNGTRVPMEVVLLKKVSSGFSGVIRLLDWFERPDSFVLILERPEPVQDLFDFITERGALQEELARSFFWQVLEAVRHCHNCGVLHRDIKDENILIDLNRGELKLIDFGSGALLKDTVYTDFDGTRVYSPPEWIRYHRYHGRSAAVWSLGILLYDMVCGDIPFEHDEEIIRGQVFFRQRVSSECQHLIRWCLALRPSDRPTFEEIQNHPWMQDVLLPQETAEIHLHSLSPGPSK

[32] = target: Serine/threonine-protein kinase N2 (Homo sapiens) (UniProt Q16513); note: assay method not described here
[33] = target: Uncharacterized protein FLJ45252 (Homo sapiens) (UniProt Q6ZSR9); note: assay method not described here
[34] = target: Small ribosomal subunit protein uS3 (Homo sapiens) (UniProt P23396); note: assay method not described here
[35] = target: Ribosomal protein S6 kinase alpha-1 (Homo sapiens) (UniProt Q15418); note: assay method not described here
[36] = target: Small ribosomal subunit protein eS8 (Homo sapiens) (UniProt P62241); note: assay method not described here
[37] = target: Protein S100-A6 (Homo sapiens) (UniProt P06703); note: assay method not described here
[38] = target: Sideroflexin-1 (Homo sapiens) (UniProt Q9H9B4); note: assay method not described here
[39] = target: ADP/ATP translocase 3 (Homo sapiens) (UniProt P12236); note: assay method not described here
Chain of ADP/ATP translocase 3 (Homo sapiens) (P12236 whole entry): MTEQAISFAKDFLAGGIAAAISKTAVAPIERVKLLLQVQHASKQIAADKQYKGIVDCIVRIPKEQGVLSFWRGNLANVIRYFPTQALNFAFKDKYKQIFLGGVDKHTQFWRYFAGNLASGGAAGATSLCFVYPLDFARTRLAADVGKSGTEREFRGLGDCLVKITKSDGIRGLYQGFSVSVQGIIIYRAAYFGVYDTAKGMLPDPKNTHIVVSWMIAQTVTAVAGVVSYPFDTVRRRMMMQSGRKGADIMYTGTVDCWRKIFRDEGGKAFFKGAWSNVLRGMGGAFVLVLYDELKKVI

[40] = target: Metal cation symporter ZIP14 (Homo sapiens) (UniProt Q15043); note: assay method not described here
Chain of Metal cation symporter ZIP14 (Homo sapiens) (Q15043 whole entry): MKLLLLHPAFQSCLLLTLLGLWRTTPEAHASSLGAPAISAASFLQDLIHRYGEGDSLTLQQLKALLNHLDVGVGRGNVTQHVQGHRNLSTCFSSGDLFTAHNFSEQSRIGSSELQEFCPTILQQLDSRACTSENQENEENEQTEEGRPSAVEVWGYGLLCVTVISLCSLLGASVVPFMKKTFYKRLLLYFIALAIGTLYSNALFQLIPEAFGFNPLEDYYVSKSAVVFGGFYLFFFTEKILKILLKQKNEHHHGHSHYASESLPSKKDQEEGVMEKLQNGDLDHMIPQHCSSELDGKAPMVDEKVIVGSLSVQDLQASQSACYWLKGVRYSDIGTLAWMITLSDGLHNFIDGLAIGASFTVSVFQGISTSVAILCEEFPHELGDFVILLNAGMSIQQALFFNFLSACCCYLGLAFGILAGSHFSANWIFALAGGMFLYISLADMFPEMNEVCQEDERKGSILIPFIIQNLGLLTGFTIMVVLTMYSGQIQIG

[41] = target: U5 small nuclear ribonucleoprotein 200 kDa helicase (Homo sapiens) (UniProt O75643); note: assay method not described here
[42] = target: Stress-induced-phosphoprotein 1 (Homo sapiens) (UniProt P31948); note: assay method not described here
Chain of Stress-induced-phosphoprotein 1 (Homo sapiens) (P31948 whole entry, looked up): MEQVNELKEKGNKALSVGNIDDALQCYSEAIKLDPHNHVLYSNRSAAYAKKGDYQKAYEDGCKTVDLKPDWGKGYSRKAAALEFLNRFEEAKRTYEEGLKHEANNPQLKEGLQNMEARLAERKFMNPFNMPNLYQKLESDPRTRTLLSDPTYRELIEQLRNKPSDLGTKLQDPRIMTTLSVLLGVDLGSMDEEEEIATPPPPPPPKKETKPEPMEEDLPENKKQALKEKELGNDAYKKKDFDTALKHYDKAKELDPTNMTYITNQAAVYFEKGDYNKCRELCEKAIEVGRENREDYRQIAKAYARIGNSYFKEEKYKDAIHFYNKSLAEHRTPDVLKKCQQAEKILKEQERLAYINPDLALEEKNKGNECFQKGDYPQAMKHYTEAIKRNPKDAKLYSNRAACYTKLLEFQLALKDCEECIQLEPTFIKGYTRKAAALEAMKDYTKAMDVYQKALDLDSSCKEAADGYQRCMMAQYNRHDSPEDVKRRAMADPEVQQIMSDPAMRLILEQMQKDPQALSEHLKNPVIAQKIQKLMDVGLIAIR

[43] = target: Synaptogyrin-2 (Homo sapiens) (UniProt O43760); note: assay method not described here
[44] = target: Transcription intermediary factor 1-beta (Homo sapiens) (UniProt Q13263); note: assay method not described here
[45] = target: Ubiquitin-protein ligase E3C (Homo sapiens) (UniProt Q15386); note: assay method not described here
[46] = target: Neurosecretory protein VGF (Homo sapiens) (UniProt O15240); note: assay method not described here
Chain of Neurosecretory protein VGF (Homo sapiens) (O15240 whole entry): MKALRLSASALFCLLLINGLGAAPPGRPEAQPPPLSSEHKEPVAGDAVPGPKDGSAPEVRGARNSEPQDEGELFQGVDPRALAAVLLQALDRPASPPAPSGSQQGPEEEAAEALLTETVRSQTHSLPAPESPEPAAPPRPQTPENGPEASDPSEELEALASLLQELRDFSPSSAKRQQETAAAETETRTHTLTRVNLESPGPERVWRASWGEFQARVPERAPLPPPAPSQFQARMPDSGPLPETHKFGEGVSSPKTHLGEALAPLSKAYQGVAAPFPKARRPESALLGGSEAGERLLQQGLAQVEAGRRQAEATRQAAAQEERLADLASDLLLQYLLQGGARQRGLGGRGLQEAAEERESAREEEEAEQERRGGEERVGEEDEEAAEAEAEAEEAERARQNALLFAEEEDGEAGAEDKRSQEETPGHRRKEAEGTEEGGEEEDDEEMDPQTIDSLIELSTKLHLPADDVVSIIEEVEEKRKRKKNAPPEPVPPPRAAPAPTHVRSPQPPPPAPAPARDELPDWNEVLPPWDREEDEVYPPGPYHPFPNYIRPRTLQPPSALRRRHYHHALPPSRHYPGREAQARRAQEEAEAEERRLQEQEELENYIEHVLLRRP

Cc1ccc(C(=O)Nc2cccc(C(F)(F)F)c2)cc1Nc1nc(-c2cccnc2)nc2c1cnn2C
pIC50 [1]: 8.55
ED50 [2]: 0.174 µM
ED50 [3]: 0.00682 µM
ED50 [4]: 0.0151 µM
ED50 [5]: 0.157 µM
ED50 [6]: 3.55 µM
ED50 [7]: 85.5 µM
ED50 [8]: 39.4 µM
ED50 [9]: 0.109 µM
ED50 [10]: 0.484 µM
ED50 [11]: 0.0142 µM
ED50 [12]: 0.00521 µM
ED50 [13]: 0.114 µM
ED50 [14]: 0.041 µM
ED50 [15]: 0.043 µM
ED50 [16]: 0.562 µM
ED50 [17]: 3.81 µM
ED50 [18]: 0.085 µM
ED50 [19]: 11.3 µM
ED50 [20]: 0.0179 µM
ED50 [21]: 4.54 µM
ED50 [22]: 19.2 µM
ED50 [23]: 0.772 µM
ED50 [24]: 0.177 µM
ED50 [25]: 0.0127 µM
ED50 [26]: 20500 µM
ED50 [27]: 4.09 µM
ED50 [28]: 4.89 µM
ED50 [29]: 0.247 µM
ED50 [30]: 0.146 µM
ED50 [31]: 0.0583 µM
ED50 [32]: 0.0969 µM
ED50 [33]: 0.248 µM
ED50 [34]: 0.00386 µM
ED50 [35]: 7.62 µM
ED50 [36]: 1.62 µM
ED50 [37]: 0.118 µM
ED50 [38]: 3.47 µM
ED50 [39]: 2.19 µM
ED50 [40]: 0.00337 µM
ED50 [41]: 6.15 µM
ED50 [42]: 3.83 µM
ED50 [43]: 44.4 µM
ED50 [44]: 59.2 µM
ED50 [45]: 0.0117 µM
ED50 [46]: 2.22 µM

Cc1ccc(C(=O)Nc2cccc(C(F)(F)F)c2)cc1Nc1nc(-c2cccnc2)nc2nn(C)cc12
pIC50 [1]: 6.68
ED50 [2]: 17 µM
ED50 [3]: 0.553 µM
ED50 [4]: 39.4 µM
ED50 [5]: 0.00782 µM
ED50 [6]: 0.00871 µM
ED50 [7]: 79.2 µM
ED50 [8]: 15 µM
ED50 [9]: 0.0889 µM
ED50 [10]: 0.136 µM
ED50 [11]: 0.0055 µM
ED50 [12]: 1.44 µM
ED50 [13]: 0.213 µM
ED50 [14]: 0.0286 µM
ED50 [15]: 4.63 µM
ED50 [16]: 12.4 µM
ED50 [17]: 2.93 µM
ED50 [18]: 0.0579 µM
ED50 [19]: 0.0527 µM
ED50 [20]: 8.2 µM
ED50 [21]: 0.0135 µM
ED50 [22]: 0.00375 µM
ED50 [23]: 1.53 µM
ED50 [24]: 1.68 µM
ED50 [25]: 2.14 µM
ED50 [26]: 28.7 µM
ED50 [27]: 5.74 µM
ED50 [28]: 4.73 µM
ED50 [29]: 0.00038 µM
ED50 [30]: 0.526 µM
ED50 [31]: 0.0901 µM
ED50 [32]: 0.0506 µM
ED50 [33]: 0.000276 µM
ED50 [34]: 0.0406 µM
ED50 [35]: 1.79 µM
ED50 [36]: 9.51 µM
ED50 [37]: 11.5 µM
ED50 [38]: 0.012 µM
ED50 [39]: 0.122 µM
ED50 [40]: 3.03 µM
ED50 [41]: 0.539 µM
ED50 [42]: 0.0577 µM
ED50 [43]: 1.91 µM
ED50 [44]: 0.0787 µM
ED50 [45]: 0.0836 µM
ED50 [46]: 2.66 µM
